Each structure is given as a SMILES string. pIC50: −log10 of the molar value.

For orientation: melting point means the temperature, or range, at which the solid turns liquid.

One series has as its system TNF-α production. Kind of series: Inhibiting activity of TNF-α production in LPS-stimulated THP-1 cells (ELISA). It is filed as cell-based. Conditions: Homo sapiens, LPS 5 μg/mL, 4 hours, TNF-α in supernatant by ELISA, read-out: IC50 (concentration necessary for inhibiting TNF-α production by 50%). How it is done: Measurement of inhibiting activity of TNF-α production
After THP-1 cells which had been cultured on PRMI 1640 medium (manufactured by Life Technologies, Inc.) containing 1% inactivated bovine fetal serum (manufactured by Life Technologies, Inc., U.S.A.) and 10 mM HEPES (pH 7.5) seeded on a 96-well plate to 1×10^5 cells/well, 1 μL test compound dissolved in DMSO was added. After incubation at 37° C. for 1 hour in a CO2 incubator, LPS (Wako Pure Chemicals) was added to the final concentration 5 μg/mL. After cultured at 37° C. for 4 hours in a CO2 incubator, the supernatant was obtained by centrifugation. The concentration of TNF-α in the supernatant was measured by ELISA (R&D Systems, Quantikine Kit). The concentration (IC50 value) of the test compound necessary for inhibiting TNF-α production by 50% was calculated using PRIMS 2.01 (Graphpad Software).
A general note: In an ELISA, binding on a coated surface is turned into a signal by an enzyme label.
In the case of `CNc1nc(-c2ccc(OC)cc2)c(-c2ccncc2)s1` [Reference Example 13-16, N-methyl [4-(4-methoxyphenyl)-5-(4-pyridyl)-1,3-thiazol-2-yl]amine], the pIC50 was 6.85.
On the same count and under the same terms, for `CNc1nc(-c2ccc(Cl)cc2)c(-c2ccncc2)s1` [Reference Example 13-70, N-methyl [4-(4-chlorophenyl)-5-(4-pyridyl)-1,3-thiazol-2-yl]amine] the value was 6.74; for `Cc1cccc(-c2nc(N)sc2-c2ccncc2)c1` [Reference Example 23-60, [4-(3-methylphenyl)-5-(4-pyridyl)-1,3-thiazol-2-yl]amine], 7.34.

Tested on in the next series: not given
Assay: not given
Conditions: not given
For the compound `CNc1nc(-c2ccc(OC)cc2)c(-c2ccncc2)s1` [Reference Example 13-16, N-methyl [4-(4-methoxyphenyl)-5-(4-pyridyl)-1,3-thiazol-2-yl]amine], the melting point is 177 to 178 °C.
Turning to `CNc1nc(-c2ccc(Cl)cc2)c(-c2ccncc2)s1` [Reference Example 13-70, N-methyl [4-(4-chlorophenyl)-5-(4-pyridyl)-1,3-thiazol-2-yl]amine], the melting point was 224 to 225 °C.
`Cc1cccc(-c2nc(N)sc2-c2ccncc2)c1` [Reference Example 23-60, [4-(3-methylphenyl)-5-(4-pyridyl)-1,3-thiazol-2-yl]amine] returned a melting point of 255 to 258 °C.
On the same count and under the same terms, for `COc1ccc(-c2nc(-c3ccc(SC)cc3)sc2-c2ccncc2)cc1` [Reference Example 23-300, methyl 4-[2-[4-(methylthio)phenyl]-5-(4-pyridyl)-1,3-thiazol-4-yl]phenyl ether] the value was 127 to 128 °C; for `O=S(=O)(Cc1ccc(-c2nc(-c3ccc(F)cc3)c(-c3ccncc3)s2)cc1)Cc1ccc(-c2nc(-c3ccc(F)cc3)c(-c3ccncc3)s2)cc1` [Reference Example 23-313, 4-[4-(4-fluorophenyl)-5-(4-pyridyl)-1,3-thiazol-2-yl]phenylmethylsulfone], 191 to 194 °C; for `O=S(=O)(Cc1ccc(-c2nc(-c3ccc(Cl)cc3)c(-c3ccncc3)s2)cc1)Cc1ccc(-c2nc(-c3ccc(Cl)cc3)c(-c3ccncc3)s2)cc1` [Reference Example 23-314, 4-[4-(4-chlorophenyl)-5-(4-pyridyl)-1,3-thiazol-2-yl]phenylmethylsulfone], 202 to 204 °C.
Take `Cc1cc(C)cc(-c2nc(NC(=O)Nc3ccccc3)sc2-c2ccncc2)c1` [Reference Example 23-315, N-[4-(3,5-dimethylphenyl)-5-(4-pyridyl)-1,3-thiazol-2-yl]-N′-phenylurea]: the melting point was 167 to 169 °C.
The same measure, in the same setting: for `COc1ccc(-c2nc(NC(=O)C(C)O)sc2-c2ccncc2)cc1` (centres unmarked) [Reference Example 23-325, 2-hydroxy-N-[4-(4-methoxyphenyl)-5-(4-pyridyl)-1,3-thiazol-2-yl]propionamide] the value was 221 to 222 °C; for `Cc1ccc(-c2nc(-c3ccc(CSCc4ccc(-c5nc(-c6ccc(C)c(C)c6)c(-c6ccncc6)s5)cc4)cc3)sc2-c2ccncc2)cc1C` [Reference Example 23-326, 4-[4-(3,4-dimethylphenyl)-5-(4-pyridyl)-1,3-thiazol-2-yl]phenylmethylsulfide], 159 to 161 °C; for `Cc1ccc(-c2nc(-c3ccc(C[S+]([O-])Cc4ccc(-c5nc(-c6ccc(C)c(C)c6)c(-c6ccncc6)s5)cc4)cc3)sc2-c2ccncc2)cc1C` [Reference Example 23-327, 4-[4-(3,4-dimethylphenyl)-5-(4-pyridyl)-1,3-thiazol-2-yl]phenylmethylsulfoxide], 161 to 164 °C.
`Cc1ccc(-c2nc(-c3ccc(CS(=O)(=O)Cc4ccc(-c5nc(-c6ccc(C)c(C)c6)c(-c6ccncc6)s5)cc4)cc3)sc2-c2ccncc2)cc1C` [Reference Example 23-328, 4-[4-(3,4-dimethylphenyl)-5-(4-pyridyl)-1,3-thiazol-2-yl]phenylmethylsulfone] had a melting point of 194 to 196 °C.
The same measure, in the same setting: for `COc1ccc(-c2nc(NC(=O)CO)sc2-c2ccncc2)cc1` [Reference Example 23-329, 2-hydroxy-N-[4-(4-methoxyphenyl)-5-(4-pyridyl)-1,3-thiazol-2-yl]acetamide] the value was 228 to 230 °C; for `Cc1cc(C)cc(-c2nc(NC(=O)c3ccc(C(=O)O)cc3)sc2-c2ccncc2)c1` [Reference Example 23-337, 4-[[[4-(3,5-dimethylphenyl)-5-(4-pyridyl)-1,3-thiazol-2-yl]amino]carbonyl]benzoic acid], 347 to 349 °C.
`Cc1cc(C)cc(-c2nc(NC(=O)c3cccc(C(=O)O)c3)sc2-c2ccncc2)c1` [Reference Example 23-342, 3-[[[4-(3,5-dimethylphenyl)-5-(4-pyridyl)-1,3-thiazol-2-yl]amino]carbonyl]benzoic acid] had a melting point of 350 to 353 °C.
Still for that read-out and setting: for `Fc1ccc(-c2nc(-c3ccccc3)sc2-c2ccncc2)cc1` [Reference Example 44-1, 4-(4-fluorophenyl)-2-phenyl-5-(4-pyridyl)-1,3-thiazole] the value was 135 to 137 °C.
The same measure, in the same setting: the result for `CSc1ccc(-c2nc(-c3cccc(C)c3)c(-c3ccncc3)s2)cc1` [Reference Example 44-7, methyl 4-[4-(3-methylphenyl)-5-(4-pyridyl)-1,3-thiazol-2-yl]phenylsulfide] reads 101 to 102 °C; that for `Cc1cccc(-c2nc(-c3ccc([S+](C)[O-])cc3)sc2-c2ccncc2)c1` (centres unmarked) [Reference Example 44-8, methyl 4-[4-(3-methylphenyl)-5-(4-pyridyl)-1,3-thiazol-2-yl]phenylsulfoxide], 188 to 189 °C.
